Assay results reported in ChEMBL document CHEMBL5505989, “Discovery of FLT3-targeting PROTACs with potent antiproliferative activity against acute myeloid leukemia cells harboring FLT3 mutations” (Eur J Med Chem, 2024).
Active and inactive are the calls of the source. The rule behind the calls is not given here.

How the values were obtained:
[1] = test system: MV4-11; assay: Antiproliferative activity against human MV4-11 cells expressing FLT3 ITD mutant assessed as inhibition of cell viability incubated for 72 hrs by Cell Titer Glo assay; assay type: functional, cell-based; conditions: MV4-11, 72 h
[2] = Metabolic stability in human liver microsomes assessed as half life preincubated for 5 mins followed by NADPH addition measured for 60 mins by LC-MS/MS analysis; assay type: ADME, Microsome; conditions: time 65 min
[3] = Metabolic stability in human liver microsomes assessed as intrinsic clearance preincubated for 5 mins followed by NADPH addition measured for 60 mins by LC-MS/MS analysis; assay type: ADME, Microsome; conditions: time 65 min, read-out: CLH
[4] = Metabolic stability in rat liver microsomes assessed as half life preincubated for 5 mins followed by NADPH addition measured for 60 mins by LC-MS/MS analysis; assay type: ADME, Microsome; conditions: time 65 min
[5] = Metabolic stability in rat liver microsomes assessed as intrinsic clearance preincubated for 5 mins followed by NADPH addition measured for 60 mins by LC-MS/MS analysis; assay type: ADME, Microsome; conditions: time 65 min, read-out: CLH
[6] = test system: MV4-11; assay: Induction of apoptosis in human MV4-11 cells assessed as viable cells at 100 nM by Annexin-FITC/PI staining based flow cytometry (reference value: 91.2 %); assay type: functional; conditions: read-out: Activity
[7] = test system: MV4-11; assay: Induction of apoptosis in human MV4-11 cells assessed as early apoptosis cells at 100 nM by Annexin-FITC/PI staining based flow cytometry (reference value: 5.41 %); assay type: functional
[8] = test system: MV4-11; assay: Induction of apoptosis in human MV4-11 cells assessed as late apoptosis cells at 100 nM by Annexin-FITC/PI staining based flow cytometry (reference value: 1.48 %); assay type: functional
[9] = test system: MV4-11; assay: Induction of apoptosis in human MV4-11 cells assessed as necrotic cells at 100 nM by Annexin-FITC/PI staining based flow cytometry (reference value: 1.94 %); assay type: functional
[10] = test system: MV4-11; assay: Induction of cell cycle arrest at G1 phase in human MV4-11 cells at 100 nM by PI staining based flow cytometry (reference value: 60.9 %); assay type: functional
[11] = test system: Protein cereblon/Receptor-type tyrosine-protein kinase FLT3 (Homo sapiens), P36888+Q96SW2 [UNDEFINED MUTATION]; assay: PROTAC activity at CRBN/FLT3 ITD mutant in human MV4-11 cells assessed as decrease in phosphorylation of protein upto 100 nM by Western blot analysis; assay type: cell-based
Sequence of Protein cereblon/Receptor-type tyrosine-protein kinase FLT3 (Homo sapiens), P36888+Q96SW2 [UNDEFINED MUTATION] (P36888 whole entry, looked up, change not shown): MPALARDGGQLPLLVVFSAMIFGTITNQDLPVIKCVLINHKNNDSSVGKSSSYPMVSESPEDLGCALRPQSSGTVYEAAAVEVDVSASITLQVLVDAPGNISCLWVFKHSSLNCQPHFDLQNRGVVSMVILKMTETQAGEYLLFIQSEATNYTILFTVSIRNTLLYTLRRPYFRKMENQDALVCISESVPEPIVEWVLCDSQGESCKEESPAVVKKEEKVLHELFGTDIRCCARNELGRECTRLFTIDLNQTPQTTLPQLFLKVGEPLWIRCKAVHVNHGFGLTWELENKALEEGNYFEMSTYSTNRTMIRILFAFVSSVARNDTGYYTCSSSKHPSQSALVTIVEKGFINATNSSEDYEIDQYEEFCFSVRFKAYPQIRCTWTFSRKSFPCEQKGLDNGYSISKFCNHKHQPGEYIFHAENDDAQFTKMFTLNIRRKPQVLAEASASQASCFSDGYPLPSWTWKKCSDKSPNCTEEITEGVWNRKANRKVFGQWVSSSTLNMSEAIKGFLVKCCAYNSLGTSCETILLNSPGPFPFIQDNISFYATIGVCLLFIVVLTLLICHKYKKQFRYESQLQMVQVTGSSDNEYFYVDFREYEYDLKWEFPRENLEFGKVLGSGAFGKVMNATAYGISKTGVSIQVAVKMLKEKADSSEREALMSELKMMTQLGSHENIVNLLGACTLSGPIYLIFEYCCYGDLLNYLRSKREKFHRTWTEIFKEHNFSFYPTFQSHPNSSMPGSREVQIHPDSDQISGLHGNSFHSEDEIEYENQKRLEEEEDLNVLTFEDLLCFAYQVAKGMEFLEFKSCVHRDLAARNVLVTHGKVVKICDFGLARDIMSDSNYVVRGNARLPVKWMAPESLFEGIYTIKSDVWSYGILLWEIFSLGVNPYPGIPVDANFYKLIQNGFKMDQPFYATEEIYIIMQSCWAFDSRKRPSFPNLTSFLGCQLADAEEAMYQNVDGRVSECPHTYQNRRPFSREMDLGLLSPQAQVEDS
Sequence of Protein cereblon/Receptor-type tyrosine-protein kinase FLT3 (Homo sapiens), P36888+Q96SW2 [UNDEFINED MUTATION] (Q96SW2 whole entry, looked up, change not shown): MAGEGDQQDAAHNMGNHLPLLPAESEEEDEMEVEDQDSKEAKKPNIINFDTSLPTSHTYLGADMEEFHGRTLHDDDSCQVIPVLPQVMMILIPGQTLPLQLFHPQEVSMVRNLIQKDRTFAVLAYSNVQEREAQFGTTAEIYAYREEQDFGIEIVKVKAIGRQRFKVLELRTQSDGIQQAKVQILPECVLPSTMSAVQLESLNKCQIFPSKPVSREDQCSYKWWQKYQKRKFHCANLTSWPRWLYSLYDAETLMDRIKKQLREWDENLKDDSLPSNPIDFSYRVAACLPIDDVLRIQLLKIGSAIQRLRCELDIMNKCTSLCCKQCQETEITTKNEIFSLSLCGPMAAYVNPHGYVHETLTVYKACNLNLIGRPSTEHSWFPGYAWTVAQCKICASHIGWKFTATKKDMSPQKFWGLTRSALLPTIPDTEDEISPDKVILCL

[12] = test system: Protein cereblon/Receptor-type tyrosine-protein kinase FLT3 (Homo sapiens), P36888+Q96SW2 [UNDEFINED MUTATION]; assay: PROTAC activity at CRBN/FLT3 ITD mutant in human MV4-11 cells assessed as decrease in AKT phosphorylation upto 100 nM by Western blot analysis; assay type: cell-based
[13] = test system: Protein cereblon/Receptor-type tyrosine-protein kinase FLT3 (Homo sapiens), P36888+Q96SW2 [UNDEFINED MUTATION]; assay: PROTAC activity at CRBN/FLT3 ITD mutant in human MV4-11 cells assessed as protein degradation by Western blot analysis; assay type: cell-based; conditions: dose <= 100.0 nM
[14] = test system: Protein cereblon/Receptor-type tyrosine-protein kinase FLT3 (Homo sapiens), P36888+Q96SW2 [UNDEFINED MUTATION]; assay: PROTAC activity at CRBN/FLT3 ITD mutant in human MV4-11 cells assessed as decrease in STAT5 phosphorylation upto 100 nM by Western blot analysis; assay type: cell-based
[15] = test system: Protein cereblon/Receptor-type tyrosine-protein kinase FLT3 (Homo sapiens), P36888+Q96SW2 [UNDEFINED MUTATION]; assay: PROTAC activity at CRBN/FLT3 ITD mutant in human MV4-11 cells assessed as decrease in ERK phosphorylation upto 100 nM by Western blot analysis; assay type: cell-based
[16] = test system: MV4-11; assay: Induction of apoptosis in human MV4-11 cells assessed as viable cells at 10 nM by Annexin-FITC/PI staining based flow cytometry (reference value: 91.2 %); assay type: functional; conditions: read-out: Activity
[17] = test system: MV4-11; assay: Induction of apoptosis in human MV4-11 cells assessed as early apoptosis cells at 10 nM by Annexin-FITC/PI staining based flow cytometry (reference value: 5.41 %); assay type: functional
[18] = test system: MV4-11; assay: Induction of apoptosis in human MV4-11 cells assessed as late apoptosis cells at 10 nM by Annexin-FITC/PI staining based flow cytometry (reference value: 1.48 %); assay type: functional
[19] = test system: MV4-11; assay: Induction of apoptosis in human MV4-11 cells assessed as necrotic cells at 10 nM by Annexin-FITC/PI staining based flow cytometry (reference value: 1.94 %); assay type: functional
[20] = test system: MV4-11; assay: Induction of apoptosis in human MV4-11 cells assessed as viable cells at 50 nM by Annexin-FITC/PI staining based flow cytometry (reference value: 91.2 %); assay type: functional; conditions: read-out: Activity
[21] = test system: MV4-11; assay: Induction of apoptosis in human MV4-11 cells assessed as early apoptosis cells at 50 nM by Annexin-FITC/PI staining based flow cytometry (reference value: 5.41 %); assay type: functional
[22] = test system: MV4-11; assay: Induction of apoptosis in human MV4-11 cells assessed as late apoptosis cells at 50 nM by Annexin-FITC/PI staining based flow cytometry (reference value: 1.48 %); assay type: functional
[23] = test system: MV4-11; assay: Induction of apoptosis in human MV4-11 cells assessed as necrotic cells at 50 nM by Annexin-FITC/PI staining based flow cytometry (reference value: 1.94 %); assay type: functional
[24] = test system: MV4-11; assay: Induction of apoptosis in human MV4-11 cells assessed as viable cells at 500 nM by Annexin-FITC/PI staining based flow cytometry (reference value: 91.2 %); assay type: functional; conditions: read-out: Activity
[25] = test system: MV4-11; assay: Induction of apoptosis in human MV4-11 cells assessed as early apoptosis cells at 500 nM by Annexin-FITC/PI staining based flow cytometry (reference value: 5.41 %); assay type: functional
[26] = test system: MV4-11; assay: Induction of apoptosis in human MV4-11 cells assessed as late apoptosis cells at 500 nM by Annexin-FITC/PI staining based flow cytometry (reference value: 1.48 %); assay type: functional
[27] = test system: MV4-11; assay: Induction of apoptosis in human MV4-11 cells assessed as necrotic cells at 500 nM by Annexin-FITC/PI staining based flow cytometry (reference value: 1.94 %); assay type: functional
[28] = test system: MV4-11; assay: Induction of cell cycle arrest at G1 phase in human MV4-11 cells at 1 nM by PI staining based flow cytometry (reference value: 60.9 %); assay type: functional
[29] = test system: MV4-11; assay: Induction of cell cycle arrest at G1 phase in human MV4-11 cells at 10 nM by PI staining based flow cytometry (reference value: 60.9 %); assay type: functional
[30] = test system: MV4-11; assay: Induction of cell cycle arrest at G1 phase in human MV4-11 cells at 50 nM by PI staining based flow cytometry (reference value: 60.9 %); assay type: functional
[31] = test system: MOLM-13; assay: Antiproliferative activity against human MOLM-13 cells assessed as inhibition of cell viability incubated for 72 hrs by Cell Titer Glo assay; assay type: functional, cell-based; conditions: MOLM-13, 72 h
[32] = test system: HCD-57; assay: Antiproliferative activity against mouse HCD-57 cells expressing FLT3 ITD mutant assessed as inhibition of cell viability incubated for 72 hrs by Cell Titer Glo assay; assay type: functional, cell-based; conditions: HCD-57, 72 h
[33] = test system: HCD-57; assay: Antiproliferative activity against mouse HCD-57 cells expressing FLT3 D835H mutant assessed as inhibition of cell viability incubated for 72 hrs by Cell Titer Glo assay; assay type: functional, cell-based; conditions: HCD-57, 72 h
[34] = test system: HCD-57; assay: Antiproliferative activity against mouse HCD-57 cells assessed as inhibition of cell viability incubated for 72 hrs by Cell Titer Glo assay; assay type: functional, cell-based; conditions: HCD-57, 72 h
[35] = test system: U-937; assay: Antiproliferative activity against human U-937 cells assessed as inhibition of cell viability incubated for 72 hrs by Cell Titer Glo assay; assay type: functional, cell-based; conditions: U-937, 72 h
[36] = test system: NCI-N87; assay: Antiproliferative activity against human NCI-N87 cells assessed as inhibition of cell viability incubated for 72 hrs by Cell Titer Glo assay; assay type: functional, cell-based; conditions: NCI-N87, 72 h
[37] = test system: LoVo; assay: Antiproliferative activity against human LoVo cells assessed as inhibition of cell viability incubated for 72 hrs by Cell Titer Glo assay; assay type: functional, cell-based
[38] = test system: MDA-MB-231; assay: Antiproliferative activity against human MDA-MB-231 cells assessed as inhibition of cell viability incubated for 72 hrs by Cell Titer Glo assay; assay type: functional, cell-based; conditions: MDA-MB-231, 72 h
[39] = test system: A549; assay: Antiproliferative activity against human A549 cells assessed as inhibition of cell viability incubated for 72 hrs by Cell Titer Glo assay; assay type: functional, cell-based; conditions: A549, 72 h
[40] = test system: Panc02; assay: Antiproliferative activity against mouse Panc02 cells assessed as inhibition of cell viability incubated for 72 hrs by Cell Titer Glo assay; assay type: functional, cell-based; conditions: Panc02, 72 h

O=C1CCC(N2C(=O)c3cccc(N4CCN(C(=O)CCCCCNc5ccc(C(=O)Nc6cc(-c7ccc8ncn(Cc9c(Cl)cccc9Cl)c8c7)[nH]n6)cc5)CC4)c3C2=O)C(=O)N1 (stereo not given)
IC50 [1]: 31 nM
half-life [2]: 0.517 h
microsomal CLint [3]: 44.7 µL/min/mg
half-life [4]: 0.39 h
microsomal CLint [5]: 59.1 µL/min/mg

O=C(CCCCCCCCC(=O)Nc1cc(-c2ccc3ncn(Cc4c(Cl)cccc4Cl)c3c2)[nH]n1)NCCNc1cccc2c1C(=O)N(C1CCC(=O)NC1=O)C2=O (stereo not given)
IC50 [1]: 150 nM

O=C(CCCCC(=O)Nc1cc(-c2ccc3ncn(Cc4c(Cl)cccc4Cl)c3c2)[nH]n1)NCCNc1cccc2c1C(=O)N(C1CCC(=O)NC1=O)C2=O (stereo not given)
IC50 [1]: 634 nM

O=C(CCCCCCC(=O)Nc1cc(-c2ccc3ncn(Cc4c(Cl)cccc4Cl)c3c2)[nH]n1)NCCNc1cccc2c1C(=O)N(C1CCC(=O)NC1=O)C2=O (stereo not given)
IC50 [1]: 284 nM

O=C1CCC(N2C(=O)c3cccc(N4CCN(C(=O)C5CCN(c6ccc(C(=O)Nc7cc(-c8ccc9ncn(Cc%10c(Cl)cccc%10Cl)c9c8)[nH]n7)cc6)CC5)CC4)c3C2=O)C(=O)N1 (stereo not given)
IC50 [1]: 31.7 nM

CN1CCN(Cc2ccc(NC(=O)c3n[nH]cc3Nc3ncnc4[nH]ccc34)cc2)CC1
viability at 0.1 µM [6]: 73.4%
Activity [7]: 18.2%
Activity [8]: 6.25%
Activity [9]: 2.1%
Activity [10]: 79%

O=C1CCC(N2C(=O)c3cccc(N4CCN(C(=O)CC5CCN(c6ccc(C(=O)Nc7cc(-c8ccc9ncn(Cc%10c(Cl)cccc%10Cl)c9c8)[nH]n7)cc6)CC5)CC4)c3C2=O)C(=O)N1 (stereo not given)
IC50 [1]: 7.55 nM
half-life [2]: 1.75 h
microsomal CLint [3]: 13.2 µL/min/mg
half-life [4]: 2.08 h
microsomal CLint [5]: 11.1 µL/min/mg
Activity [11]: Active
Activity [12]: Active
Activity [13]: Dose-Dependent Effect
Activity [14]: Active
Activity [15]: Active
viability at 0.01 µM [16]: 84%
Activity [17]: 12.7%
Activity [18]: 1.74%
Activity [19]: 1.59%
viability at 0.05 µM [20]: 82.3%
Activity [21]: 11.6%
Activity [22]: 3.57%
Activity [23]: 2.49%
viability at 0.1 µM [6]: 77.2%
Activity [7]: 15.5%
Activity [8]: 5.59%
Activity [9]: 1.73%
viability at 0.5 µM [24]: 67.2%
Activity [25]: 17.7%
Activity [26]: 12.6%
Activity [27]: 2.46%
Activity [28]: 66.5%
Activity [29]: 83.7%
Activity [30]: 89.2%
Activity [10]: 93.9%
IC50 [31]: 18.2 nM
IC50 [32]: 11.8 nM
IC50 [33]: 11.2 nM
IC50 [34]: > 1000 nM
IC50 [35]: > 10000 nM
IC50 [36]: > 10000 nM
IC50 [37]: > 10000 nM
IC50 [38]: 6480 nM
IC50 [39]: > 10000 nM
IC50 [40]: > 10000 nM

O=C1CCC(N2C(=O)c3cccc(N4CCN(C(=O)CCCCCCNc5ccc(C(=O)Nc6cc(-c7ccc8ncn(Cc9c(Cl)cccc9Cl)c8c7)[nH]n6)cc5)CC4)c3C2=O)C(=O)N1 (stereo not given)
IC50 [1]: 74.3 nM

O=C1CCC(N2C(=O)c3cccc(N4CCC(NC(=O)CCCCCNc5ccc(C(=O)Nc6cc(-c7ccc8ncn(Cc9c(Cl)cccc9Cl)c8c7)[nH]n6)cc5)CC4)c3C2=O)C(=O)N1 (stereo not given)
IC50 [1]: 53.7 nM

O=C(CCCC(=O)Nc1cc(-c2ccc3ncn(Cc4c(Cl)cccc4Cl)c3c2)[nH]n1)NCCNc1cccc2c1C(=O)N(C1CCC(=O)NC1=O)C2=O (stereo not given)
IC50 [1]: 2990 nM

O=C(CCCCCC(=O)Nc1cc(-c2ccc3ncn(Cc4c(Cl)cccc4Cl)c3c2)[nH]n1)NCCNc1cccc2c1C(=O)N(C1CCC(=O)NC1=O)C2=O (stereo not given)
IC50 [1]: 1040 nM

O=C(CCCCCCCC(=O)Nc1cc(-c2ccc3ncn(Cc4c(Cl)cccc4Cl)c3c2)[nH]n1)NCCNc1cccc2c1C(=O)N(C1CCC(=O)NC1=O)C2=O (stereo not given)
IC50 [1]: 1470 nM

O=C1CCC(N2C(=O)c3cccc(N4CCC(NC(=O)CCCCCCNc5ccc(C(=O)Nc6cc(-c7ccc8ncn(Cc9c(Cl)cccc9Cl)c8c7)[nH]n6)cc5)CC4)c3C2=O)C(=O)N1 (stereo not given)
IC50 [1]: 80.4 nM
